Laboratory results taken from patent US11318206B2, “Compounds and methods for trans-membrane delivery of molecules” (Aposense Ltd., priority 2014, dated 2022).
“Also recorded” adds a separate entry of the source.

What was measured:
[1] = system: EGFP gene; test: EGFP gene silencing in primary culture of hepatocytes of transgenic mice; assay type: cell-based, mouse; details: EGFP dsRNA, two MNMs, complex with Histone H2A (2:1 Histone/RNA); 40 nM; 72 hours
Method: Double-stranded RNA sequence, as specified in Example 7 was attached to two MNMs according to Formula (VIIa), wherein a=2, and k=1, designated Apo-Si—C4. The conjugate (40 nM) was then incubated with the histone 2A protein (Histone H2A, Molecular Weight 14 kDa; New England Biolabs, Inc.) for 30 minutes (at a 2:1 Histone/RNA ratio) for generation of RNA+MNM+protein complex. The complex was then incubated with cells of primary culture of hepatocytes of transgenic mice, expressing the EGFP gene. After 72 hours, fluorescence of the EGFP signal was quantified utilizing an ELISA reader, as described in Example 7. […] As evident from the results, this complex was capable of effectively crossing the cell membranes, and moreover, exerting a beneficial biological performance in gene silencing. By comparison to the performance of the Control complex, which was devoid of MNMs, the observed results can be attributed solely to the MNMs of the invention.

[2] = system: 3T3-EGFP cells; test: Structure/function analysis of polarity: uptake into 3T3-EGFP cells, FACS; assay type: cell-based, mouse; details: Cy3 58-mer DNA conjugate, 40 nM
Method: For this purpose, two analogous Conjugates were constructed and evaluated: • (i). A Conjugate of dsDNA, linked to E and E′, each has the structure as set forth in Formula (VIIa); designated Apo-Si—C4: […]
Both these MNM moieties were linked to a 58-mer DNA oligonucleotide, labeled with the Cy3-fluorophore, and were subjected to FACS analysis.
One day before the experiment, 3T3-EGFP cells in the exponential growth phase were plated in 6-well plates, at a density of 0.2-0.5×10^5 cells/well, with DMEM complete medium, without antibiotics. Each of the Cy3-labeled oligonucleotides (with or without the MNMs) was diluted in 500 μl/well of Opti-Mem, and added to the cells, at a final concentration of 40 nM. Delivery of the Conjugates was evaluated at 2-24 hours of incubation. Following the incubation period, cells were trypsinized, supplemented with Hank's Buffered Salt Solution (HBSS buffer; Biological Industries, Israel) and centrifuged for 5 min at 1100 rpm. […] Detection and quantification of the Cy3-positive cell population were performed using measurements of the fluorescence intensity in the cells incubated with the Apo-Si-4C Conjugate, relative to that of the cells incubated with the Control A Conjugate.

[3] = system: 3T3-EGFP cells; test: Uptake of Conjugate into 3T3-EGFP cells with dipole potential modulators phloretin or 6-KC; assay type: cell-based, mouse
Excerpt: Phloretin is an inhibitor of the membrane dipole potential and the related IMEF, while 6-keto-cholestanol (6-KC) is a potent enhancer of the IMEF). Therefore, a potential relationship between the effects of the dipole potential modulators phloretin or 6-KC, and the uptake level of the above Conjugate of the Invention (comprising the Apo-Si—C4 MNM, linked to dsDNA, of the sequence: Sense:/5′-MNM/TT/iCy3/[…] (SEQ ID. No. 9); Anti-sense:/5′-MNM/[…] (SEQ ID. No. 10); wherein Cy3 is a red fluorophore); was examined.
One day before the experiment, 3T3-EGFP cells in the exponential growth phase were plated in 6-well plates, at a density of 5×10^5 cells/well, with DMEM complete medium, without antibiotics. Cells were incubated with phloretin 750 μM at 37° C., or 6-KC 100 μM at 37° C., for one hour. The 6-KC was then washed away, while the phloretin was kept in the medium. The Conjugate as described above was diluted in 500 μl/well of Opti-Mem, and added to the above cells, at a final concentration of 40 nM for two hours. Delivery of the Conjugate was evaluated at 2 hours post transfection. At that time point, cells were trypsinized, supplemented with Hank's Buffered Salt Solution (HBSS buffer; Biological Industries, Israel) and centrifuged for 5 min at 1200 rpm. Cells were then re-suspended with Hank's Buffered Salt Solution, and subjected to analysis using FACSAria III Cell Sorter (BD Biosciences, San Jose, Calif., USA), utilizing the Cell Diva software. For each sample, a total of 10^4 events were collected.

[4] = system: 3T3 cells; test: Delivery of 58-mer dsDNA Conjugate into 3T3 cells, ELISA reader (Example 8); assay type: cell-based, murine; details: Cy3 58-mer dsDNA, two MNMs
Method: (§1) 3T3 cells and C26 cells were grown and prepared as described in Example 5 above. Cells were incubated for 1, 2, and 24 hours with a Conjugate comprising a 58-mer double-stranded (ds)DNA, linked to Cy3 fluorophore, and lined to two Apo-Si—C4 moieties. Two concentrations of the Conjugate were tested: 40 nM and 100 nM. Analysis comprised fluorescent microscopy and signal quantification by ELISA reader, as described in Example 5 above. An identical 58-mer dsDNA, not linked to E moieties, served as Control.

[5] = system: C26 cells; test: Delivery of 58-mer dsDNA Conjugate into C26 cells, ELISA reader (Example 8); assay type: cell-based, murine; details: Cy3 58-mer dsDNA, two MNMs
Method: as §1

[6] = Stability under oligonucleotide de-protection conditions, HPLC/MS; assay type: physicochemical; details: ammonium hydroxide at 65° C., samples at 15 minutes, 1 and 2 hours
Excerpt: Synthesis of the Conjugates of the Invention customarily involves protecting the nucleobases of the synthesized oligonucleotides by chemical groups. For example, adenine is often protected by a benzoyl protecting group, guanine by isobutyryl, and cytosine by acetyl. These protecting groups should be removed at the end of synthesis, in order to obtain a functional oligonucleotide. This removal is customarily performed in strong basic conditions. For example, the standard protocol of IDT (Iowa, USA) for removal of the protecting groups during synthesis of oligonucleotides comprises incubation with ammonium hydroxide at 65° C. degrees, for 2 hours. In order to evaluate whether the Compound of the Invention can sustain de-protection in these harsh conditions, a model system was constructed, based on the following Model Compound A, having the following structure:
Two mg of this compound were incubated in the above standard conditions used for deprotection. Samples were drawn after 15 minutes, 1 and 2 hours incubation, and evaluated by HPLC/MS, exploring and analyzing the formation of new peaks. […] Therefore, this analogue of the compound of the Invention manifested stability in these relatively harsh basic conditions.

| SMILES | Reduction of the EGFP signal vs control complex without MNMs [1] | Cy3 fluorescent signal in cells (FACS) ([2]; 24 hours of incubation) | Cy3 fluorescent signal in cells (FACS) ([2]; two hours of incubation) | Uptake by cells after 6-keto-cholestanol (Cy3 fluorescence microscopy) ([3]; 40 nM, 2 hours, pre-incubation with 6-KC 100 μM for one hour) | Cells labeled (FACS) ([3]; Cy3 dsDNA, MNMs, 40 nM, 2 hours, no modulator) | Cells manifesting binding of the Conjugate (FACS) ([3]; Cy3 dsDNA, MNMs, 40 nM, 2 hours, phloretin 750 μM) | Uptake by cells after phloretin (flow cytometry) ([3]; pre-incubation with phloretin) | Ratio of signal intensity of the Conjugate versus control dsDNA devoid of MNMs ([4]; 40 nM) | Ratio of signal intensity of the Conjugate versus control dsDNA devoid of MNMs ([4]; 100 nM) | Ratio of signal intensity of the Conjugate versus control dsDNA devoid of MNMs ([5]; 40 nM) | Ratio of signal intensity of the Conjugate versus control dsDNA devoid of MNMs ([5]; 100 nM) | Degradation under de-protection conditions [6] |
| --- | --- | --- | --- | --- | --- | --- | --- | --- | --- | --- | --- | --- |
| [2H]CCCCOc1ccc2c(c1)CCC1C2CCC2(C)C(OCCCOC(C(F)(F)F)(C(F)(F)F)C(F)(F)F)CCC12 (stereo not drawn) [Apo-Si—C4] | 76% | further augmented | strong Cy-3 fluorescent signal | markedly higher uptake; also recorded: markedly increased uptake | 68% | 1.5% | marked reduction in the uptake | 104 fold | 101 fold | 80 fold | 72 fold | – |
| CCCCCCN(C(=O)Oc1ccccc1)[C@H]1CCSSC1 [Compound A] | – | – | – | – | – | – | – | – | – | – | – | no signs of degradation |
